# Assay results taken from US8802597B2, “Herbicidal pyrimidines” (E I du Pont de Nemours and Company, priority 2003, dated 2014).
# How the values were obtained:
# Type in all cases: in vivo
# [1] = system: lambsquarters (CHEAL; Chenopodium album); assay: Test I mixtures of compound 9 with metsulfuron-methyl and chlorsulfuron-metsulfuron-methyl (5:1); conditions: applied alone
# Text: (§1) This test evaluated the effect of mixtures of compound 9 with metsulfuron-methyl and with a 5:1 by weight combination of chlorsulfuron and metsulfuron-methyl on several plant species. Seeds of test plants consisting of wheat (TRZAW; Triticum aestivum), wild buckwheat, (POLCO; Polygonum convolvulus), redroot pigweed (AMARE; Amaranthus retroflexus), wild mustard (SINAR; Sinapis arvensis), catchweed bedstraw (GALAP; Galium aparine), Russian thistle (SASKR; Salsola kali), common chickweed (STEME; Stellaria media), kochia (KCHSC; Kochia scoparia), and lambsquarters (CHEAL; Chenopodium album) were planted into a blend of loam soil and sand. Plants were grown in a greenhouse using supplemental lighting to maintain a photoperiod of about 14 hours; daytime and nighttime temperatures were about 23° C. and 16° C., respectively. Balanced fertilizer was applied through the watering system. The plants were grown for 10 to 23 days so that at time of treatment the plants ranged from 2- to 8-leaf stage. Treatments consisted of Compound 9, metsulfuron-methyl, and chlorsulfuron-metsulfuron-methyl (5:1) alone and in combination. The treatments were formulated in a non-phytotoxic solvent mixture which included a surfactant and applied as a foliage spray using a volume of 280-458 L/ha. Each treatment was replicated three times. […] Treated plants and controls were maintained in the greenhouse and watered as needed with care to not wet the foliage for the first 24 hours after treatment. The effects on the plants approximately 17 days after treatment were visually compared to untreated controls. Plant response ratings were calculated as the means of the three replicates, based on a scale of 0 to 100 where 0 is no effect and 100 is complete control. Colby's Equation was used to determine the herbicidal effects expected from the mixtures.
# [2] = system: wild mustard (SINAR; Sinapis arvensis); assay: as above; conditions: applied alone
# Text: as §1
# [3] = system: wild buckwheat (POLCO; Polygonum convolvulus); assay: as above; conditions: applied alone
# Text: as §1
# [4] = system: catchweed bedstraw (GALAP; Galium aparine); assay: as above; conditions: applied alone
# Text: as §1
# [5] = system: Russian thistle (SASKR; Salsola kali); assay: as above; conditions: applied alone
# Text: as §1
# [6] = system: bearded sprangletop (LEFUF; Leptochloa fusca ssp. fascicularis); assay: Test J mixtures of compound 58 with azimsulfuron, flooded paddy; conditions: 21 days, scale 0-100
# Text: (§2) This test evaluated the effect of mixtures of compound 58 with azimsulfuron on several plant species. Three plastic pots (ca. 16-cm diameter) per rate were partially filled with sterilized Tama silt loam soil comprising a 35:50:15 ratio of sand, silt and clay and 2.6% organic matter. Separate plantings for each of the three pots were as follows. Seeds from the U.S. of ducksalad (HETLI; Heteranthera limosa), smallflower umbrella sedge (CYPDI; Cyperus difformis) and purple redstem (AMMCO; Ammannia coccinea), were planted into one 16-cm pot for each rate. Seeds from the U.S. of bearded sprangletop (LEFUF; Leptochloa fusca ssp. fascicularis), one stand of 9 or 10 water-seeded rice seedlings (ORYSW; Oryza sativa cv. ‘Japonica-M202’), and one stand of 6 transplanted rice seedlings (ORYSP; Oryza sativa cv. ‘Japonica-M202’) were planted into one 16-cm pot for each rate. Seeds from the U.S. of barnyardgrass (ECHCG; Echinochloa crus-galli), late watergrass (ECOR2; Echinochloa oryzicola), early watergrass (ECHOR; Echinochloa oryzoides) and junglerice (ECHCO; Echinochloa colona) were planted into one 16-cm pot for each rate. Plantings were sequential so that crop and weed species were at the 2.0 to 2.5-leaf stage at time of treatment.
# (§3) Potted plants were grown in a greenhouse with day/night temperature settings of 29.5/26.7° C., and supplemental balanced lighting was provided to maintain a 16-hour photoperiod. Test pots were maintained in the greenhouse until test completion.
# (§4) At time of treatment, test pots were flooded to 3 cm above the soil surface and then treated by application directly to the paddy water of test compounds formulated in a non-phytotoxic solvent mixture which included a surfactant. The pots were maintained at the 3-cm water depth for the duration of the test. Treatments consisted of compound 58 and azimsulfuron alone and in combination. Effects of treatments on rice and weeds were visually evaluated by comparison to untreated controls after 21 days. Plant response ratings were calculated as the means of the three replicates and are summarized in Table J. The ratings are based on a scale of 0 to 100 where 0 is no effect and 100 is complete control. A dash (-) response means no test result. Colby's Equation was used to determine the herbicidal effects expected from the mixtures.
# [7] = system: junglerice (ECHCO; Echinochloa colona); assay: as above; conditions: 21 days, scale 0-100
# Text: as §2, §3, §4
# [8] = system: barnyardgrass (ECHCG; Echinochloa crus-galli); assay: as above; conditions: 21 days, scale 0-100
# Text: as §2, §3, §4
# [9] = system: transplanted rice seedlings (ORYSP; Oryza sativa cv. ‘Japonica-M202’); assay: as above; conditions: 21 days, scale 0-100
# Text: as §2, §3, §4
# [10] = system: late watergrass (ECOR2; Echinochloa oryzicola); assay: as above; conditions: 21 days, scale 0-100
# Text: as §2, §3, §4
# [11] = system: smallflower umbrella sedge (CYPDI; Cyperus difformis); assay: as above; conditions: 21 days, scale 0-100
# Text: as §2, §3, §4
# [12] = system: ducksalad (HETLI; Heteranthera limosa); assay: as above; conditions: 21 days, scale 0-100
# Text: as §2, §3, §4
# [13] = system: early watergrass (ECHOR; Echinochloa oryzoides); assay: as above; conditions: 21 days, scale 0-100
# Text: as §2, §3, §4
# [14] = system: purple redstem (AMMCO; Ammannia coccinea); assay: as above; conditions: 21 days, scale 0-100
# Text: as §2, §3, §4
# [15] = system: water-seeded rice seedlings (ORYSW; Oryza sativa cv. ‘Japonica-M202’); assay: as above; conditions: 21 days, scale 0-100
# Text: as §2, §3, §4
smiles,measurement,setting,value
"COC(=O)c1nc(C2CC2)nc(N)c1Cl [Compound 9, methyl 6-amino-5-chloro-2-cyclopropyl-4-pyrimidinecarboxylate]",CHEAL Obsd. (observed effect),[1]; 4 g a.i./ha,45
same,CHEAL Obsd. (observed effect),[1]; 8 g a.i./ha,83
same,SINAR Obsd. (observed effect),[2]; 4 g a.i./ha,45
same,SINAR Obsd. (observed effect),[2]; 8 g a.i./ha,47
same,POLCO Obsd. (observed effect),[3]; 4 g a.i./ha,17
same,POLCO Obsd. (observed effect),[3]; 8 g a.i./ha,27
same,GALAP Obsd. (observed effect),[4]; 4 g a.i./ha,83
same,GALAP Obsd. (observed effect),[4]; 8 g a.i./ha,87
same,SASKR Obsd. (observed effect),[5]; 4 g a.i./ha,50
same,SASKR Obsd. (observed effect),[5]; 8 g a.i./ha,73
"COC(=O)c1nc(-c2ccc(Cl)cc2)nc(N)c1Cl [Compound 58, methyl 6-amino-5-chloro-2-(4-chlorophenyl)-4-pyrimidinecarboxylate]",LEFUF Obsd.,[6]; Compound 58 16 g a.i./ha alone,0
same,LEFUF Obsd.,[6]; Compound 58 32 g a.i./ha alone,0
same,LEFUF Obsd.,[6]; Compound 58 64 g a.i./ha alone,20
same,ECHCO Obsd.,[7]; Compound 58 16 g a.i./ha alone,0
same,ECHCO Obsd.,[7]; Compound 58 32 g a.i./ha alone,0
same,ECHCO Obsd.,[7]; Compound 58 64 g a.i./ha alone,0
same,ECHCG Obsd.,[8]; Compound 58 16 g a.i./ha alone,0
same,ECHCG Obsd.,[8]; Compound 58 32 g a.i./ha alone,0
same,ECHCG Obsd.,[8]; Compound 58 64 g a.i./ha alone,0
same,ORYSP Obsd.,[9]; Cmpd 58 16 g a.i./ha alone,0
same,ORYSP Obsd.,[9]; Cmpd 58 32 g a.i./ha alone,0
same,ORYSP Obsd.,[9]; Cmpd 58 64 g a.i./ha alone,0
same,ECOR2 Obsd.,[10]; Compound 58 16 g a.i./ha alone,0
same,ECOR2 Obsd.,[10]; Compound 58 32 g a.i./ha alone,0
same,ECOR2 Obsd.,[10]; Compound 58 64 g a.i./ha alone,0
same,CYPDI Obsd.,[11]; Cmpd 58 16 g a.i./ha alone,100
same,CYPDI Obsd.,[11]; Cmpd 58 32 g a.i./ha alone,100
same,CYPDI Obsd.,[11]; Cmpd 58 64 g a.i./ha alone,100
same,HETLI Obsd.,[12]; Cmpd 58 16 g a.i./ha alone,100
same,HETLI Obsd.,[12]; Cmpd 58 32 g a.i./ha alone,100
same,HETLI Obsd.,[12]; Cmpd 58 64 g a.i./ha alone,100
same,ECHOR Obsd.,[13]; Compound 58 16 g a.i./ha alone,0
same,ECHOR Obsd.,[13]; Compound 58 32 g a.i./ha alone,0
same,ECHOR Obsd.,[13]; Compound 58 64 g a.i./ha alone,0
same,AMMCO Obsd.,[14]; Cmpd 58 16 g a.i./ha alone,0
same,AMMCO Obsd.,[14]; Cmpd 58 32 g a.i./ha alone,30
same,AMMCO Obsd.,[14]; Cmpd 58 64 g a.i./ha alone,90
same,ORYSW Obsd.,[15]; Cmpd 58 16 g a.i./ha alone,10
same,ORYSW Obsd.,[15]; Cmpd 58 32 g a.i./ha alone,10
same,ORYSW Obsd.,[15]; Cmpd 58 64 g a.i./ha alone,20
